In ChEMBL document CHEMBL4411322 (J Med Chem, 2019):

How the values were obtained:
[1] = species on record: Homo sapiens; assay: Selectivity ratio of IC50 for human integrin alphavbeta6 receptor to IC50 for human integrin alphavbeta8 receptor
[2] = molecular target: Integrin alpha-V/beta-6 (Homo sapiens, UniProt P06756+P18564); assay: Inhibition of LAP binding to human integrin alphavbeta6 receptor after 1 hr by solid-phase binding assay; type: protein-complex assay; conditions: read-out: IC50
[3] = molecular target: Integrin alpha-V/beta-8 (Homo sapiens, UniProt P06756+P26012); assay: Inhibition of LAP binding to human integrin alphavbeta8 receptor after 1 hr by solid-phase binding assay; type: protein-complex assay; conditions: read-out: IC50
Sequence of Integrin alpha-V/beta-8 (P06756 31-889 limits assumed): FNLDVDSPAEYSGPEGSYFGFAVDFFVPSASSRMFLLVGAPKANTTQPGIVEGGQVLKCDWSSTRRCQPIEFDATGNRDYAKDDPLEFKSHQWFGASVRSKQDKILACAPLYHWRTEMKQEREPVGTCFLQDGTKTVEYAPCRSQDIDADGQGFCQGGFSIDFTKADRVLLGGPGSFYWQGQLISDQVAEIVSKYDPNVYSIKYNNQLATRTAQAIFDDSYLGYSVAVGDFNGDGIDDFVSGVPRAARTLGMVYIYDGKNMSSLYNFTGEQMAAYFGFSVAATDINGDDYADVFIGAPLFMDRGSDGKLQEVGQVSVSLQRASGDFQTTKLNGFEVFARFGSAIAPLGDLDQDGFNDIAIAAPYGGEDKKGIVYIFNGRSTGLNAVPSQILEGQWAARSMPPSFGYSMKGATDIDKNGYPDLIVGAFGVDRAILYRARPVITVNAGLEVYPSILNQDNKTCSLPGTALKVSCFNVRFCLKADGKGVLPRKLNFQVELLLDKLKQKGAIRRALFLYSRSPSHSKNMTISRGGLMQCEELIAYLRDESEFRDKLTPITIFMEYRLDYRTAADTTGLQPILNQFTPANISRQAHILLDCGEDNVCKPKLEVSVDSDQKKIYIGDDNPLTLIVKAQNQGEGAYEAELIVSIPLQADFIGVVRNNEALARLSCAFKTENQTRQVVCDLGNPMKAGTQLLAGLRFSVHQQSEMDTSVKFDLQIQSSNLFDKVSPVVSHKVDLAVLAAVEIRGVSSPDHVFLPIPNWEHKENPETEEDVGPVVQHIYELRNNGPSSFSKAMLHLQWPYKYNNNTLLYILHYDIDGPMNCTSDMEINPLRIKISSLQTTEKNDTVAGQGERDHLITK
Sequence of Integrin alpha-V/beta-8 (P06756 891-1048 limits assumed): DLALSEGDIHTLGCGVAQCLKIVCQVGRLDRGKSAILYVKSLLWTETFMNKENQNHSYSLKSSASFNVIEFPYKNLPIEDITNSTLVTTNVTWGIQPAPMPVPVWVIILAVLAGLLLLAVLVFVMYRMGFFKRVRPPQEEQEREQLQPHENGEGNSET
Sequence of Integrin alpha-V/beta-8 (P26012 43-769 limits assumed): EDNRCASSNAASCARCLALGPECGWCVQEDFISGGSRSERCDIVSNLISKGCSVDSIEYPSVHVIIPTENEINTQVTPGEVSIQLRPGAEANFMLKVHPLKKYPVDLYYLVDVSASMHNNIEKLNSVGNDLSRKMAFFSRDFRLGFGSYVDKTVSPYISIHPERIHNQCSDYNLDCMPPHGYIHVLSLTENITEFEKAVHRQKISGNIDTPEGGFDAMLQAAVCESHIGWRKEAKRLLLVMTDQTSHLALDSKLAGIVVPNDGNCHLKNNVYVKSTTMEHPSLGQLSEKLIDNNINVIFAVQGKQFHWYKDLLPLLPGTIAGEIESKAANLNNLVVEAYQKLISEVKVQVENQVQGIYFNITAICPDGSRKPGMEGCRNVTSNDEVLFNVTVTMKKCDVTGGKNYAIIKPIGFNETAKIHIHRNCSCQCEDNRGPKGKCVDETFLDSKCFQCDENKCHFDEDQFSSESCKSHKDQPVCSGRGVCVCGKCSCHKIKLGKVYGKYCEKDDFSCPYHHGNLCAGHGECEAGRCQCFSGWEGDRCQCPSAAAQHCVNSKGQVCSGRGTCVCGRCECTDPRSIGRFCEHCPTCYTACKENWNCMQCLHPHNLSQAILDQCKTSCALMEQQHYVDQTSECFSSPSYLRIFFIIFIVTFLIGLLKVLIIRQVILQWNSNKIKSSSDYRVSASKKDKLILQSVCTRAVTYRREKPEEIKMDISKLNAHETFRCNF

Sequence of Integrin alpha-V/beta-6 (P06756 31-889 limits assumed): as the sequence (P06756 31-889 limits assumed) above
Sequence of Integrin alpha-V/beta-6 (P06756 891-1048 limits assumed): as the sequence (P06756 891-1048 limits assumed) above
Sequence of Integrin alpha-V/beta-6 (P18564 22-788 limits assumed): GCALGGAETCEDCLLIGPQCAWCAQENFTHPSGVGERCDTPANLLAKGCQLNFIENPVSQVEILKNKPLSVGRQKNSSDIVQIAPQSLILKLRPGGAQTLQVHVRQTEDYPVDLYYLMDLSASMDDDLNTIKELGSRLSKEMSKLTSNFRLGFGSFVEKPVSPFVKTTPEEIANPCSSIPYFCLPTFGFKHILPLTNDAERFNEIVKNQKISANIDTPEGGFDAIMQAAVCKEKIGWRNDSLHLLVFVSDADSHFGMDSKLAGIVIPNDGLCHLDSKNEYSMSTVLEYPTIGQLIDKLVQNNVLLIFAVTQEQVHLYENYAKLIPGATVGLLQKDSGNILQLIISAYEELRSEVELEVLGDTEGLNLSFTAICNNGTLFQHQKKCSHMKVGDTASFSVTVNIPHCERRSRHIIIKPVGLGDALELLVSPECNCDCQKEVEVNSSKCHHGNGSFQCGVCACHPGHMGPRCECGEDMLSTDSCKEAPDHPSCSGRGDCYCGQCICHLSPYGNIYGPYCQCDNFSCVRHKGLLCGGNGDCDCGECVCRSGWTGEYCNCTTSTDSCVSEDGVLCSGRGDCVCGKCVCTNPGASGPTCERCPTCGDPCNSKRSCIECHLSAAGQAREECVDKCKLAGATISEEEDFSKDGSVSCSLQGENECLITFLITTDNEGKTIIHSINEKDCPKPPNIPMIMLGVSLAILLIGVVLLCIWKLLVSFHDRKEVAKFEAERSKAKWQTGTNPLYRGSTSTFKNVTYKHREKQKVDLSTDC

Row | Compound | Ratio IC50 [1] | IC50 [2] [nM] | IC50 [3] [nM]
1 | CC[C@H](C)[C@@H]1NC(=O)[C@H](CC(=O)O)NC(=O)CNC(=O)[C@H](CCCNC(=N)N)NC(=O)[C@H](Cc2ccccc2)NC(=O)[C@H](C)NC(=O)[C@@H]2CCCN2C(=O)[C@H]2CCCN2C1=O | 4.2 | 707 | 169
2 | CC(C)C[C@@H]1NC(=O)[C@H](C)NC(=O)[C@@H]2CCCN2C(=O)[C@@H](CC(C)C)N(C)C(=O)[C@H](CC(C)C)NC(=O)[C@H](CC(=O)O)NC(=O)CNC(=O)[C@H](CCCNC(=N)N)NC1=O | 6.3 | 95 | 15
3 | CC(C)C[C@@H]1NC(=O)[C@H](C)NC(=O)[C@H](C)NC(=O)[C@@H]2CCCN2C(=O)[C@H]2CCCN2C(=O)[C@H](CC(C)C)NC(=O)[C@H](CC(=O)O)NC(=O)CNC(=O)[C@H](CCCNC(=N)N)NC(=O)[C@H](C)NC1=O | 2.9 | 140 | 47.4
4 | CC(C)C[C@@H]1NC(=O)[C@@H]2CCCN2C(=O)[C@H]2CCCN2C(=O)[C@H](CC(C)C)NC(=O)[C@H](CC(=O)O)NC(=O)CNC(=O)[C@H](CCCNC(=N)N)NC(=O)[C@H](C)NC1=O | 3.7 | 420 | 114
5 | CC(C)C[C@@H]1NC(=O)[C@H](CC(=O)O)NC(=O)[C@H](CO)NC(=O)[C@H](CCCNC(=N)N)NC(=O)[C@H](Cc2ccccc2)NC(=O)[C@H](C)NC(=O)[C@@H]2CCCN2C(=O)[C@H]2CCCN2C1=O | 64 | 369 | 5.8
6 | CC(C)C[C@@H]1NC(=O)[C@@H]2CCCN2C(=O)[C@H]2CCCN2C(=O)[C@H](CC(C)C)NC(=O)[C@H](CC(=O)O)NC(=O)CNC(=O)[C@H](CCCNC(=N)N)NC(=O)[C@H](C)NC(=O)[C@H](C)NC(=O)[C@H](C)NC1=O | 1.4 | 889 | 631

Continued by falling IC50 [2], values first:

Row | Ratio IC50 [1] | IC50 [2] [nM] | IC50 [3] [nM] | Compound
7 | 20 | 769 | 38 | CCNC(=N)NCCC[C@@H]1NC(=O)[C@H](CC(C)C)NC(=O)CNC(=O)[C@@H]2CCCN2C(=O)[C@H]2CCCN2C(=O)[C@H](CC(C)C)NC(=O)[C@H](CC(=O)O)NC(=O)CNC1=O
8 | 5.7 | 720 | 127 | CC(C)C[C@@H]1NC(=O)[C@H](C)NC(=O)[C@H](C)NC(=O)[C@@H]2CCCN2C(=O)[C@H]2CCCN2C(=O)[C@H](CC(C)C)NC(=O)[C@H](CC(=O)O)NC(=O)[C@H]([C@@H](C)O)NC(=O)[C@H](CCCNC(=N)N)NC(=O)[C@H](C)NC1=O
9 | 1.7 | 274 | 166 | CC(C)C[C@@H]1NC(=O)[C@H](CC(=O)O)NC(=O)CNC(=O)[C@H](CCCNC(=N)N)NC(=O)[C@H](C)NC(=O)[C@H](C)NC(=O)[C@H](C)NC(=O)[C@H](C)NC(=O)[C@@H]2CCCN2C(=O)[C@H]2CCCN2C1=O
10 | 14.1 | 114 | 8.1 | CC(C)C[C@@H]1NC(=O)[C@H](CC(=O)O)NC(=O)CNC(=O)[C@H](CCCNC(=N)N)NC(=O)[C@H](C)NC(=O)[C@H](C)NC(=O)[C@@H]2CCCN2C(=O)[C@H]2CCCN2C1=O
11 | 12 | 75.9 | 6.3 | CC(C)C[C@@H]1NC(=O)[C@H](CC(=O)O)NC(=O)CNC(=O)[C@H](CCCNC(=N)N)NC(=O)[C@H](CC(=O)O)NC(=O)[C@H](C)NC(=O)[C@@H]2CCCN2C(=O)[C@H]2CCCN2C1=O
12 | 1.6 | 70 | 44 | CC(C)C[C@@H]1NC(=O)[C@H](C)NC(=O)[C@H](C(C)C)N(C)C(=O)[C@H]2CCCN2C(=O)[C@H](CC(C)C)NC(=O)[C@H](CC(=O)O)NC(=O)CNC(=O)[C@H](CCCNC(=N)N)NC1=O
13 | 2.7 | 42.4 | 15.9 | CC(C)C[C@@H]1NC(=O)[C@H](CC(=O)O)NC(=O)CNC(=O)[C@H](CCCNC(=N)N)NC(=O)CNC(=O)[C@H](C)NC(=O)[C@@H]2CCCN2C(=O)[C@H]2CCCN2C1=O
14 | 5.6 | 40.7 | 7.32 | CC(C)C[C@@H]1NC(=O)[C@H](CC(=O)O)NC(=O)CNC(=O)[C@H](CCCNC(=N)N)NC(=O)[C@H](CCCCN)NC(=O)[C@H](C)NC(=O)[C@@H]2CCCN2C(=O)[C@H]2CCCN2C1=O
